Literature values as cited in patent publication EP4473960A1, “VACCINE FORMULATION COMPRISING A SURFACTANT THAT DOES NOT COMPRISE AN ESTER BOND” (Vaxxinova Nederland BV, priority 2023, dated 2024).
Where two headings read alike, the source gives them in different places.

[1] = Table 2, surfactants without ester bond
[2] = Table 3A, HLB values of surfactants discussed

| Substance | HLB [1] | HLB [2] | Hydrophilic-Lipophilic Balance (HLB) |
| --- | --- | --- | --- |
| Polyoxyethylen (2) cetylether [Brij 52] | 5,3 | 5,3 | – |
| Polyoxyethylen (2) oleylether [Brij 92] | 4,9 | 4,9 | – |
| Polyoxyethylen (2) stearylether [Brij 72] | 4,9 | 4,9 | – |
| Polyoxyethylen (4) laurylether [Brij 30] | 9,7 | 9,7 | – |
| Polyoxyethylen (6) cetylstearylether [Cremophor A6] | 10-12 | 10 - 12 | – |
| Polyoxyethylen (9) laurylether [Thesit] | 11.2 | – | – |
| Polyoxyethylen (10) monodecylether | 14.6 | – | – |
| Polyoxyethylen (10) tridecylether | 13.7 | – | – |
| Polyoxyethylen (20) cetylstearylether [Cremophor A20] | 14-16 | – | – |
| Polyoxyethylen (25) cetylstearylether [Cremophor A25] | 15-17 | 15-17 | – |
| Sorbitan monooleate [Span 80] | – | 4,3 | 4,3 |
| Sorbitan palmitate [Span 40] | – | 6.7 | – |
| Sorbitan stearate [Span 60] | – | 4,7 | – |
| Sorbitan tristearate [Span 65] | – | 2,2 | – |
